Data on 13 compounds can be found in US4008331A, “Antidepressant 1,1a,6,10b-tetrahydrodibenzo-[a,e]-cyclopropa-[c]-cyclohepten-6-substitu ted oximes” (E. I. Du Pont de Nemours and Company, priority 1976, dated 1977).

In general, ED50 refers to the midpoint of the dose-response relation.

Each structure is given as a SMILES string. Structures can show the parent of a compound that is named as a salt. Where two headings read alike, the source gives them in different places.

Data set [1] concerns tetrabenazine-induced depression in mice. The data set can be described thus: Antagonism of tetrabenazine-induced sedation and depression in mice, orally at 1 hour post-drug. Format: in vivo, Carworth CF1 S female mice. The conditions noted are these: for ED50: Mus musculus, po, 1 h. The method, then: Relief from ptosis was recorded when exactly 2 seconds after placing the mouse facing the observer, lid closure was less than 50% in both eyes.

Data set [2] can be described thus: Hydrolytic stability in 0.5M hydrochloric acid at 25° for 20 hrs (NMR of residue). Format: physicochemical. The method, then: For example, a solution of 0.6 g of N-(2-methylaminoethyl)-1,1a,6,10b-tetrahydrodibenzo[a,e]cyclopropa[c]cyclohepten-6-imine in 20 ml of 0.5M hydrochloric acid was stirred at 25° for 20 hrs. The solution was cooled and 10 ml of 10% sodium hydroxide solution was added, and the oil was twice extracted with a solution of 25% methylene chloride in ether. The combined organic extracts were thoroughly washed with saturated brine, dried and solvent removed. The NMR spectrum of the residue (0.5 g) indicated about 40% decomposition of the imine to the ketone occurred.
This stability to hydrolysis is advantageous in preparation, storage, and use of pharmaceutical dosage forms.

[3] abbreviates: mice, oral, 1 hour post-drug, tetrabenazine 32 mg/kg intraperitoneally 30 minutes after compound, read-out: ED50 for prevention of ptosis.
Where [4] appears, read: mice, oral, 1 hour post-drug, tetrabenazine 32 mg/kg intraperitoneally 30 minutes after compound, 60 min.
[5] abbreviates: mice, oral, 1 hour post-drug, tetrabenazine 32 mg/kg intraperitoneally 30 minutes after compound, read-out: ED50 for prevention of exploratory loss.
The mark [6] stands for this setting: mice, oral, 1 hour post-drug, tetrabenazine 32 mg/kg intraperitoneally 30 minutes after compound, hydrochloride, 60 min.

On to `NCCON=C1c2ccccc2C2CC2c2ccccc21` (centres unmarked) [H CH2 CH2 NH2 . HCl], for which the 50% effective dose (ED50) in data set [1] (setting [3]) came to 0.09 mg/kg. Besides, the “ED50 for prevention of exploratory loss” value in data set [1] (setting [4]) came to 0.10 mg/kg.
On to `CN(C)CCCON=C1c2ccccc2C2CC2c2ccccc21` (centres unmarked) [H CH2 CH2 CH2 N(CH3)2, 1,1a,6,10b-Tetrahydrodibenzo[a,e]cyclopropa[c]cyclohepten-6-one 0-[3-(dimethylamino)propyl]oxime], for which the ED50 in data set [1] (setting [5]) was found to be 15.6 mg/kg; in data set [1] (setting [3]), 9 mg/kg.
In the case of `CNCCON=C1c2ccccc2C2CC2c2ccccc21` (centres unmarked) [H CH2 CH2 NHCH3, 1,1a,6,10b-Tetrahydrodibenzo[a,e]cyclopropa[c]cyclohepten-6-one 0-[2-(methylamino)ethyl]oxime], the “decomposition (in words)” value in data set [2] (same procedure: 0.5M hydrochloric acid) was “no detectable decomposition”. Moreover, the ED50 in data set [1] (setting [5]) came to 1.9 mg/kg; in data set [1] (setting [3]), 0.33 mg/kg.
With `CN(C)CCON=C1c2ccccc2C2CC2c2ccccc21` (centres unmarked) [H CH2 CH2 N(CH3)2 . HCl, 1,1a,6,10b-Tetrahydrodibenzo[a,e]cyclopropa[c]cyclohepten-6-one 0-[2-(dimethylamino)ethyl]oxime hydrochloride], in data set [1] (setting [6]), the “ED50 for prevention of exploratory loss” value is listed as 1.4 mg/kg and the “ED50 for prevention of ptosis” value amounted to 0.5 mg/kg.
In the case of `c1ccc2c(c1)C(=NOCCN1CCCC1)c1ccccc1C1CC21` (centres unmarked), the ED50 in data set [1] (setting [5]) came to 10.4 mg/kg; in data set [1] (setting [3]), 4.8 mg/kg.
Regarding `NCCON=C1c2ccccc2C2CC2c2ccccc21` (centres unmarked) [H CH2 CH2 NH2, 1,1a,6,10b-Tetrahydrodibenzo[a,e]cyclopropa[c]cyclohepten-6-one 0-(2-aminoethyl)oxime], the “ED50 for prevention of ptosis” value in data set [1] (mice, oral, 1 hour post-drug, tetrabenazine 32 mg/kg intraperitoneally 30 minutes after compound) is 0.09 mg/kg. In data set [1] (setting [4]), the “ED50 for prevention of exploratory loss” value stood at 0.25 mg/kg.
On to `CN(C)CCCN1c2ccccc2CCc2ccccc21` [imipramine, reference compound], for which the ED50 in data set [1] (read-out: ED50 for prevention of exploratory loss) was determined as 3 mg/kg; in data set [1] (read-out: ED50 for prevention of ptosis), 2.5 mg/kg.
For `CC(C)N(CCON=C1c2ccccc2C2CC2c2ccccc21)C(C)C` (centres unmarked) [H CH2 CH2 N[CH(CH3)2]2, 1,1a,6,10b-Tetrahydrodibenzo[a,e]cyclopropa[c]cyclohepten-6-one 0-[2-(diisopropylamino)ethyl]oxime], the ED50 was 5.2 mg/kg in data set [1] (setting [5]) and 3.3 mg/kg in data set [1] (setting [3]).
The corresponding values for `CN(C)CCC=C1c2ccccc2CCc2ccccc21` [amitriptyline, reference compound] are 4.7 mg/kg and 1.7 mg/kg.
The corresponding values for `c1ccc2c(c1)C(=NOCCN1CCOCC1)c1ccccc1C1CC21` (centres unmarked) are 3 mg/kg and 1 mg/kg.
As to `CNCCN=C1c2ccccc2C2CC2c2ccccc21` (centres unmarked) [N-(2-methylaminoethyl)-1,1a,6,10b-tetrahydrodibenzo[a,e]cyclopropa[c]cyclohepten-6-imine, reference compound], the degraded at 20 h in data set [2] (0.5 m hcl, 0.6 g in 20 ml of 0.5M hydrochloric acid, by NMR, read-out: decomposition of the imine to the ketone) is ~40%.
With `CN(C)CCON=C1c2ccccc2C2CC2c2ccccc21` (centres unmarked) [H CH2 CH2 N(CH3)2, 1,1a,6,10b-Tetrahydrodibenzo[a,e]cyclopropa[c]cyclohepten-6-one 0-[2-(dimethylamino)ethyl]oxime], the ED50 in data set [1] (setting [5]) amounted to 2.3 mg/kg; in data set [1] (setting [3]), 0.4 mg/kg.
The like results for `c1ccc2c(c1)C(=NOCCN1CCCCC1)c1ccccc1C1CC21` (centres unmarked) were, in that order, 4.7 mg/kg and 1.7 mg/kg.
